The source of these data is patent US9155696B2, “Pharmaceutical compositions” (Novartis AG, priority 2008, dated 2015).

For this data set, the system named is erythrocytes of female and male blood donor. In words: Hemolysis study of solvents. To be noted: for Hemolysis [%]: female and male blood donor (n = 4). Type of data set: cell-based. Here is the method: To outline the suitability of PEG500DME as a solvent for parenteral use, a hemolysis study was performed: […]
The mark [1] stands for this setting: dilution 1:2 with 0.9% NaCl solution.
The mark [2] stands for this setting: dilution 1:4 with 0.9% NaCl solution.
The mark [3] stands for this setting: dilution 1:8 with 0.9% NaCl solution.
[4] abbreviates: dilution 1:16 with 0.9% NaCl solution.
Where [5] appears, read: dilution 1:32 with 0.9% NaCl solution.
The mark [6] stands for this setting: dilution 1:64 with 0.9% NaCl solution.
[7] abbreviates: dilution 1:128 with 0.9% NaCl solution.

Take `CN1CCCC1=O` [NMP, 1-methyl-2-pyrrolidinone]: the “Hemolysis [%] in donor one” value turned out to be 28% (dilution 0 (pure solvent)); 0% under setting [1]; 0% under setting [2]; 0% under setting [3]; 0% under setting [4]; 0% under setting [5]. The “Hemolysis [%] in donor one” value under setting [6] is 0% and the “Hemolysis [%] in donor one” value under setting [7] came to 0%. For the same molecule, the “Hemolysis [%] in donor two” value was 54% (dilution 0 (pure solvent)); 10% under setting [1]; 1% under setting [2]; 1% under setting [3]; 1% under setting [4]; 1% under setting [5]. In addition, the “Hemolysis [%] in donor two” value is, setting by setting: under setting [6], 1%; under setting [7], 1%. In addition, the “Hemolysis [%]” value runs as follows: under setting [1], 7.8 ± 5.6%; under setting [2], 0.5 ± 0.6%; under setting [3], 0.3 ± 0.5%; under setting [4], 0.3 ± 0.5%; under setting [5], 0.3 ± 0.5%; under setting [6], 0.3 ± 0.5%. The “Hemolysis [%]” value under setting [7] was determined as 0.3 ± 0.5%.
